The compounds below were run against T1, human Cav3.2 channels (Homo sapiens, UniProt O95180) (assay: T-type calcium blocking action: intracellular calcium (Fluo-4 AM fluorescence) in HEK293 cells steadily expressing human Cav3.2 channels). Settings: HEK293 cells expressing human Cav3.2; KCl-stimulated calcium influx, Fluo-4 fluorescence; Tables 1 to 3.
T1 construct: human Cav3.2 channel ORF (Open Reading Frame) gene; expressed in transfected cells; host or cells: HEK293 cells (ATCC No. CRL-1573), pcDNA3.1(+) plasmid
Format: cell-based
Summary of the method: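 Fluo-4 AM-loaded stable HEK293 cells were preincubated 15 min at RT with compound (0.1% DMSO final) in choline-based buffer (pH 7.3). Gramicidin was added, then KCl-induced calcium influx was read at 485/510 nm for 10 s. Percent block came from peak rise over baseline, and IC50 from log-concentration plots.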

T1 sequence (O95180 whole entry): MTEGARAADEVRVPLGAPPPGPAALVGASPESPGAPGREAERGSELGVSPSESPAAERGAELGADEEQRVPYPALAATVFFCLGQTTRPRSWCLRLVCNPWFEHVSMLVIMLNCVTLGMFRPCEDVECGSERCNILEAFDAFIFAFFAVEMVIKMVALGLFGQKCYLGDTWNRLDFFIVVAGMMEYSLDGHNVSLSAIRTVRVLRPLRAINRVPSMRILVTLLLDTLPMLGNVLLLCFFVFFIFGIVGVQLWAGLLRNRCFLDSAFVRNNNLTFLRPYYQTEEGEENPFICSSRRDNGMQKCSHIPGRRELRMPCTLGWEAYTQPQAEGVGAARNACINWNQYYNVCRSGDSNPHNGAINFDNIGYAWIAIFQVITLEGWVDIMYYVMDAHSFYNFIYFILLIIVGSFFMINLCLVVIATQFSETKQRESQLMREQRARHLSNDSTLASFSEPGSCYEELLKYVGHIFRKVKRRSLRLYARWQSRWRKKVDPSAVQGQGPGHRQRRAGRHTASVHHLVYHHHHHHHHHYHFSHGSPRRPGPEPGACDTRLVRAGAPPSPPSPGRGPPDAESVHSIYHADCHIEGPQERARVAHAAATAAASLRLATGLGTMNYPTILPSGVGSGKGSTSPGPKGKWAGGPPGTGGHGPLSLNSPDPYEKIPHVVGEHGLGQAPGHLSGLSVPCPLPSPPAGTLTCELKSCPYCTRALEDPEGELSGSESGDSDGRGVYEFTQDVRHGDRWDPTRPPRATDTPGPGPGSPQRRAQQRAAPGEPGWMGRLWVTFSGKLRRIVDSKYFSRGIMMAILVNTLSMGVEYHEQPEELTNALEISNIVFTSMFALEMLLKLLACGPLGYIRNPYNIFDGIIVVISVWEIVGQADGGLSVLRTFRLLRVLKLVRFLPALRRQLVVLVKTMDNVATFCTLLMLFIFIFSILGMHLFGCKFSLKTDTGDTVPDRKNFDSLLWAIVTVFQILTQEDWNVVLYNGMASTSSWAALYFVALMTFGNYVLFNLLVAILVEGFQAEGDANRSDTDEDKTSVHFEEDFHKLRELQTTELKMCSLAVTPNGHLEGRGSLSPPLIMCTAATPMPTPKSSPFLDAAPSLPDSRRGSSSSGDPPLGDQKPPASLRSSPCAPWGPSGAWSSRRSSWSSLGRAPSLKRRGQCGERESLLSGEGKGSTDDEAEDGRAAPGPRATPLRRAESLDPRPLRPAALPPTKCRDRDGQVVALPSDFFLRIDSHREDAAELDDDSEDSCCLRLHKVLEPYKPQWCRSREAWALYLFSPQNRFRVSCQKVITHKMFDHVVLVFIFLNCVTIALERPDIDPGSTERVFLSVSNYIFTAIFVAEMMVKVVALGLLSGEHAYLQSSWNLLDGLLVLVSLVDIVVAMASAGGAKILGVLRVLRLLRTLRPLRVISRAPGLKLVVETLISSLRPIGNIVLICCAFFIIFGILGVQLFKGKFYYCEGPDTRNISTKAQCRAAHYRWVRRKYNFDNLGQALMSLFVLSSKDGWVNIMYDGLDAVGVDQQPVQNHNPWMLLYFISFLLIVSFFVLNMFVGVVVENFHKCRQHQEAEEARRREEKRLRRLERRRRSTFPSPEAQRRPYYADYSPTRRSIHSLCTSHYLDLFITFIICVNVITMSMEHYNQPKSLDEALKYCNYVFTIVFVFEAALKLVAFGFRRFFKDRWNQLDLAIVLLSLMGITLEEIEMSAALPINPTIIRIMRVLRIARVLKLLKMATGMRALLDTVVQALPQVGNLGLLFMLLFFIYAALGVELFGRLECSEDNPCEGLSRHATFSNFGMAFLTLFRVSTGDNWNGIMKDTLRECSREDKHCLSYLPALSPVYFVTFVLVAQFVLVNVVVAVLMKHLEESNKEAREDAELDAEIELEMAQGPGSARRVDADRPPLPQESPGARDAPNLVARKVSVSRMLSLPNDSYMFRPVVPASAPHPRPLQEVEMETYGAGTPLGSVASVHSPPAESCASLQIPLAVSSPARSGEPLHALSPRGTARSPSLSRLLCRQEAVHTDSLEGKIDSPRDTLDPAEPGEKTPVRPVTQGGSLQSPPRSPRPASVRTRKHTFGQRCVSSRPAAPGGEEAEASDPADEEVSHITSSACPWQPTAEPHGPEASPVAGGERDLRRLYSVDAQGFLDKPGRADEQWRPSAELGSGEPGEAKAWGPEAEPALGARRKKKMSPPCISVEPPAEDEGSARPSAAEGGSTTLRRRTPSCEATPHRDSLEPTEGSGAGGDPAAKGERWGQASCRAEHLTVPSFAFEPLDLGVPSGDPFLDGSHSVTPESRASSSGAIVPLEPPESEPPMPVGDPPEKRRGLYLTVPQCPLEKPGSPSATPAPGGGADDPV

| Structure (SMILES) | IC50 [nM] |
| --- | --- |
| Cn1ncc2cc(CC(=O)N[C@@H]3CCN(c4ccc(C(F)(F)F)nc4)C3)ccc21 [Example 144, (R)-2-(1-methyl-1H-indazol-5-yl)-N-(1-(6-(trifluoromethyl)pyridin-3-yl)pyrrolidin-3-yl)acetamide] | 22 |
| O=C(Cc1ccc(C2CC2)cc1)N[C@@H]1CCN(c2cc(F)cc(C(F)(F)F)c2)C1 [Example 136, (R)-2-(4-cyclopropylphenyl)-N-(1-(3-fluoro-5-(trifluoromethyl)phenyl)pyrrolidin-3-yl)acetamide] | 1500 |
| CCOC(=O)C(C)(C)Oc1cccc(N2CC[C@@H](NC(=O)Cc3ccc(C4CC4)cc3)C2)c1 [Example 177, Ethyl (R)-2-(3-(3-(2-(4-cyclopropylphenyl)acetamido)pyrrolidin-1-yl)phenoxy)-2-methylpropanoate] | 300 |
| O=C(Cc1ccc(C2CC2)cc1)N[C@@H]1CC[N+]([O-])(c2cncc(C(F)(F)F)c2)C1 (stereo partly drawn) [Example 134B, (3R)-3-(2-(4-cyclopropylphenyl)acetamido)-1-(5-(trifluoromethyl)pyridin-3-yl)pyrrolidine 1-oxide] | 1000 |
| O=C(N[C@@H]1CCN(c2cncc(C(F)(F)F)c2)C1)[C@H]1C[C@@H]1c1nc2ccccc2o1 [Example 39, (1S,2S)-2-(benzo[d]oxazol-2-yl)-N—((R)-1-(5-(trifluoromethyl)pyridin-3-yl)pyrrolidin-3-yl)cyclopropane-1-carboxyamide] | 22 |
| O=C(Cc1ccc(C2CC2)cc1)NC1(CO)CCN(c2cncc(C(F)(F)F)c2)C1 (stereo not drawn) [Example 103, 2-(4-cyclopropylphenyl)-N-(3-(hydroxymethyl)-1-(5-(trifluoromethyl)pyridin-3-yl)pyrrolidin-3-yl)acetamide] | 140 |
| O=C(Cc1ccc(C2CC2)cc1)N[C@@H]1CCN(c2nc(C(F)(F)F)co2)C1 [Example 80, (R)-2-(4-cyclopropylphenyl)-N-(1-(4-(trifluoromethyl)oxazol-2-yl)pyrrolidin-3-yl)acetamide] | 720 |
| O=C(Cc1ccc(C2CC2)cc1)N[C@]12CC1CN(c1cncc(C(F)(F)F)c1)C2 (stereo partly drawn) [Example 10, 2-(4-cyclopropylphenyl)-N-(3-(5-(trifluoromethyl)pyridin-3-yl)-3-azabicyclo[3.1.0]hexan-1-yl) acetamide] | 410 |
| O=C(Cc1ccc(N2C3CCC2COC3)cc1)N[C@@H]1CCN(c2ccc(C(F)(F)F)nc2)C1 [Example 150, 2-(4-(3-Oxa-8-azabicyclo[3.2.1]octan-8-yl)phenyl)-N—((R)-1-(6-(trifluoromethyl)pyridin-3-yl)pyrrolidin-3-yl)acetamide] | 400 |
| COC(=O)C1(NC(=O)Cc2ccc(N3CCOCC3)cc2)CCN(c2cncc(C(F)(F)F)c2)C1 (stereo not drawn) [Example 41, Methyl 3-(2-(4-morpholinophenyl)acetamido)-1-(5-(trifluoromethyl)pyridin-3-yl)pyrrolidine-3-carboxylate] | 25 |
| O=C(N[C@@H]1CCN(c2cncc(C(F)(F)F)c2)C1)C1CC1c1cc(Cl)cc(Cl)c1 (single isomer, unassigned) [Example 99B] | 480 |
| O=C(Cc1ccc(N2C3CCC2COC3)cc1)N[C@@H]1CCN(c2cncc(C(F)(F)F)c2)C1 [Example 149, 2-(4-(3-Oxa-8-azabicyclo[3.2.1]octan-8-yl)phenyl)-N—((R)-1-(5-(trifluoromethyl)pyridin-3-yl)pyrrolidin-3-yl) acetamide] | 69 |
| O=C(Cc1cc(Cl)cc(Cl)c1)N[C@@H]1CCN(c2cncc(C(F)(F)F)c2)C1 [Example 119, (R)-2-(3,5-dichlorophenyl)-N-(1-(5-(trifluoromethyl)pyridin-3-yl)pyrrolidin-3-yl)acetamide] | 2300 |
| Cc1ncc(N2CC[C@@H](NC(=O)Cc3ccc(C4CC4)cc3)C2)cc1C(F)(F)F [Example 18, (R)-2-(4-cyclopropylphenyl)-N-(1-(6-methyl-5-(trifluoromethyl)pyridin-3-yl)pyrrolidin-3-yl)acetamide] | 90 |
| C[C@@]1(NC(=O)Cc2ccc(N3CCOCC3)cc2)CCN(c2cncc(C(F)(F)F)c2)C1 [Example 147, (R)—N-(3-methyl-1-(5-(trifluoromethyl)pyridin-3-yl)pyrrolidin-3-yl)-2-(4-morpholinophenyl)acetamide] | 170 |
| COc1ncc(N2CC[C@@H](NC(=O)Cc3ccc(C(C)C)cc3)C2)cc1C(F)(F)F [Example 110, (R)-2-(4-isopropylphenyl)-N-(1-(6-methoxy-5-(trifluoromethyl)pyridin-3-yl)pyrrolidin-3-yl)acetamide] | 290 |
| O=C(N[C@@H]1CCN(c2cncc(C(F)(F)F)c2)C1)[C@H]1C[C@@H]1c1nc2ccccc2[nH]1 [Example 71, (1S,2S)-2-(1H-benzo[d]imidazol-2-yl)-N—((R)-1-(5-(trifluoromethyl)pyridin-3-yl)pyrrolidin-3-yl)cyclopropane-1-carboxyamide] | 7.9 |

Now from value to compound:

| IC50 [nM] | Structure (SMILES) |
| --- | --- |
| 700 | CC(C)(O)COc1ccc(CC(=O)N[C@@H]2CCN(c3cncc(C(F)(F)F)c3)C2)cc1 [Example 27, (R)-2-(4-(2-hydroxy-2-methylpropoxy)phenyl)-N-(1-(5-(trifluoromethyl)pyridin-3-yl)pyrrolidin-3-yl)acetamide] |
| 62 | O=C(Cc1ccc2cc[nH]c2c1)N[C@@H]1CCN(c2cncc(C(F)(F)F)c2)C1 [Example 124, (R)-2-(1H-indol-6-yl)-N-(1-(5-(trifluoromethyl)pyridin-3-yl)pyrrolidin-3-yl)acetamide] |
| 270 | O=C(Cc1c[nH]c2ccccc12)N[C@@H]1CCN(c2cncc(C(F)(F)F)c2)C1 [Example 78, (R)-2-(1H-indol-3-yl)-N-(1-(5-(trifluoromethyl)pyridin-3-yl)pyrrolidin-3-yl)acetamide] |
| 560 | O=C(N[C@@H]1CCN(c2cncc(C(F)(F)F)c2)C1)C1CC1c1ccc(F)c(F)c1 (single isomer, unassigned) [Example 107B] |
| 240 | O=C(N[C@@H]1CCN(c2cncc(C(F)(F)F)c2)C1)C1(c2ccc(C(F)(F)F)cc2)CC1 [Example 34, (R)-1-(4-(trifluoromethyl)phenyl)-N-(1-(5-(trifluoromethyl)pyridin-3-yl)pyrrolidin-3-yl)cyclopropane-1-carboxyamide] |
| 200 | O=C(N[C@@H]1CCN(c2cncc(C(F)(F)F)c2)C1)C1CC1c1ccc(Cl)cc1 (single isomer, unassigned) [Example 108B] |
| 150 | C[Si](C)(C)c1ccc(CC(=O)N[C@@H]2CCN(c3cncc(C(F)(F)F)c3)C2)cc1 [Example 26, (R)—N-(1-(5-(trifluoromethyl)pyridin-3-yl)pyrrolidin-3-yl)-2-(4-(trimethylsilyl)phenyl)acetamide] |
| 400 | O=C(N[C@@H]1CCN(c2cncc(C(F)(F)F)c2)C1)C1CC1c1ccc(C2CC2)cc1 (single isomer, unassigned) [Example 106B] |
| 240 | CC(C)c1ccc(CC(=O)NC2CCN(c3cncc(C(F)(F)F)c3)CC2)cc1 [Example 109, 2-(4-Isopropylphenyl)-N-(1-(5-(trifluoromethyl)pyridin-3-yl)piperidin-4-yl)acetamide] |
| 150 | O=C(Cc1ccc(C(F)(F)F)c(F)c1)N[C@@H]1CCN(c2cncc(C(F)(F)F)c2)C1 [Example 32, (R)-2-(3-fluoro-4-(trifluoromethyl)phenyl)-N-(1-(5-(trifluoromethyl)pyridin-3-yl)pyrrolidin-3-yl)acetamide] |
| 820 | NC(C(=O)N[C@@H]1CCN(c2cncc(C(F)(F)F)c2)C1)c1ccc(C2CC2)cc1 (single isomer, unassigned) [Example 137B] |
| 150 | O=C1CCN(c2ccc(CC(=O)N[C@@H]3CCN(c4cncc(C(F)(F)F)c4)C3)cc2)CC1 [Example 102, (R)-2-(4-(4-oxopiperidin-1-yl)phenyl)-N-(1-(5-(trifluoromethyl)pyridin-3-yl)pyrrolidin-3-yl)acetamide] |
| 630 | CC(=O)Nc1ccc(CC(=O)N[C@@H]2CCN(c3cncc(C(F)(F)F)c3)C2)cc1 [Example 35, (R)-2-(4-acetamidophenyl)-N-(1-(5-(trifluoromethyl)pyridin-3-yl)pyrrolidin-3-yl)acetamide] |
| 550 | Cn1nc(CC(=O)N[C@@H]2CCN(c3cncc(C(F)(F)F)c3)C2)cc1C(F)(F)F [Example 81, (R)-2-(1-methyl-5-(trifluoromethyl)-1H-pyrazol-3-yl)-N-(1-(5-(trifluoromethyl)pyridin-3-yl)pyrrolidin-3-yl) acetamide] |
| 5.4 | Cn1ccc2cc(CC(=O)N[C@@H]3CCN(c4cncc(C(F)(F)F)c4)C3)ccc21 [Example 139, (R)-2-(1-methyl-1H-indol-5-yl)-N-(1-(5-(trifluoromethyl)pyridin-3-yl)pyrrolidin-3-yl)acetamide] |

What follows are compounds tested against T2, Cav3.1 channel (Homo sapiens, UniProt O43497) (assay: Cav3.1 channel blocking action, as the Cav3.2 test but with the Cav3.1 channel ORF gene and 1.0 mM CaCl2 in the buffers). Settings: Cav3.1 channel ORF gene; CaCl2 1.0 mM in buffer A and buffer B.
T2 construct: replaced with a Cav3.1 channel ORF gene; expressed in transfected cells
Format: cell-based

T2 sequence (O43497 whole entry): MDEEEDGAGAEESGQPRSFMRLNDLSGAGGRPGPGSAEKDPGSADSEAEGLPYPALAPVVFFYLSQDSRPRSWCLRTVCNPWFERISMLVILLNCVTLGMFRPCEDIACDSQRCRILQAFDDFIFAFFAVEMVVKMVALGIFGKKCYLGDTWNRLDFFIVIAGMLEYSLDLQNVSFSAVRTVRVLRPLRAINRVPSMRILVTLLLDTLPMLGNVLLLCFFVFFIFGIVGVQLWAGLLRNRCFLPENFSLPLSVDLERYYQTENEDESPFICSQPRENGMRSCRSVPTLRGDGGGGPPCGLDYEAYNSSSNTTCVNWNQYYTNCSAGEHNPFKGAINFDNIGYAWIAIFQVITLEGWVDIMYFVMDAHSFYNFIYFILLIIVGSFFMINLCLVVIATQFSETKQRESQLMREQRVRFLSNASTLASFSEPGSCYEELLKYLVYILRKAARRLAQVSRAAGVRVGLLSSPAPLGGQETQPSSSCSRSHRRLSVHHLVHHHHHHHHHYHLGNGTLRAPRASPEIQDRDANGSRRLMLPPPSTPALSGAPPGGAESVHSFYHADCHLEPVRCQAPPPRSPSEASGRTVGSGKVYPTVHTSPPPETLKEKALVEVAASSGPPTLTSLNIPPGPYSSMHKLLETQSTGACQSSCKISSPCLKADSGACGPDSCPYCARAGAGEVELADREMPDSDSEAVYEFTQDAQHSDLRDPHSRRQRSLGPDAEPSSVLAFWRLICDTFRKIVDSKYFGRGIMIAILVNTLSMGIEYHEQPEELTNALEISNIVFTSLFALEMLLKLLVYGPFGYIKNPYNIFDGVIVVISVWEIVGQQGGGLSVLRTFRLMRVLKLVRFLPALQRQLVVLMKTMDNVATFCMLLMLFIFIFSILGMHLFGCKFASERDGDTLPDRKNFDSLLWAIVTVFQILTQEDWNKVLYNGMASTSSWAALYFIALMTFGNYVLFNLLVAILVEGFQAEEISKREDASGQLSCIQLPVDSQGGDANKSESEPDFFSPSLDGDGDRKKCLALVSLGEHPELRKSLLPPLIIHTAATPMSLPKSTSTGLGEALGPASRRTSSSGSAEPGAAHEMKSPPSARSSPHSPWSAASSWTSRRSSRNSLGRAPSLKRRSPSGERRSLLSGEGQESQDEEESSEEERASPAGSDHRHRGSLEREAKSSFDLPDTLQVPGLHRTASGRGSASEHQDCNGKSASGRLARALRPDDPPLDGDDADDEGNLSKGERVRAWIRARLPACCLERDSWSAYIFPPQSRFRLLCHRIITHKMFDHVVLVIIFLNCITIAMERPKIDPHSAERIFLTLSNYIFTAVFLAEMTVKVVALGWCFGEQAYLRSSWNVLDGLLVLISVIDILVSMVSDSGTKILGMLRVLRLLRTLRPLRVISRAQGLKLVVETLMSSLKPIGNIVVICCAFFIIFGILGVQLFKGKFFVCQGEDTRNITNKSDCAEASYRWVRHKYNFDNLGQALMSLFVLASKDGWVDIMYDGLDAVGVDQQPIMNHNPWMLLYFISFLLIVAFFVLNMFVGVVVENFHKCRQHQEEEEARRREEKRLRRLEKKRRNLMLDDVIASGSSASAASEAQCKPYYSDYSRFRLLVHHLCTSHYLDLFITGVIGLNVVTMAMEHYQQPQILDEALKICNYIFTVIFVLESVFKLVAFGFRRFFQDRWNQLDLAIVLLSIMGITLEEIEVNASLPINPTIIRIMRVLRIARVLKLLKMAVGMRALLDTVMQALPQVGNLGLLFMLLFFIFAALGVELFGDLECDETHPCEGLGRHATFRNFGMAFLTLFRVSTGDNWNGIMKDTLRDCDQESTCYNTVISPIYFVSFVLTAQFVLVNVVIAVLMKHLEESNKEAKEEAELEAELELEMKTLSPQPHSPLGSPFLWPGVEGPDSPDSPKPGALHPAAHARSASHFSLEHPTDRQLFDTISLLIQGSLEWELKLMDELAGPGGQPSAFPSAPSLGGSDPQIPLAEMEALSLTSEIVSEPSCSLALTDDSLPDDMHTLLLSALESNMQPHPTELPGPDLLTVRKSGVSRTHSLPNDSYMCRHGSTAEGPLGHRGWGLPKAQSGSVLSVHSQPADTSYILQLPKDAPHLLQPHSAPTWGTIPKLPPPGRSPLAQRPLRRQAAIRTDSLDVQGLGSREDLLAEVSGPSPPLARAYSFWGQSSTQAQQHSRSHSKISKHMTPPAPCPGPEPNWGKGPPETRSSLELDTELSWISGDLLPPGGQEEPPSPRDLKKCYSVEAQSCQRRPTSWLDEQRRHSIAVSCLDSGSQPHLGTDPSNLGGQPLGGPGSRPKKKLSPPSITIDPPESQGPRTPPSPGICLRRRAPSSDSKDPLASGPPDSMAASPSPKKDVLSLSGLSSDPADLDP

| IC50 [nM] | Structure (SMILES) |
| --- | --- |
| 470 | Cn1ncc2cc(CC(=O)N[C@@H]3CCN(c4ccc(C(F)(F)F)nc4)C3)ccc21 [Example 144, (R)-2-(1-methyl-1H-indazol-5-yl)-N-(1-(6-(trifluoromethyl)pyridin-3-yl)pyrrolidin-3-yl)acetamide] |
